Here are results for 20 molecules from patent publication US20220073536A1 (Rigel Pharmaceuticals, Inc., priority 2003, published 2022).

For assay [1], the system named is cultured human mast cells (CHMC). Kind of assay: CHMC low cell density ionomycin activation: tryptase assay. Format: cell-based. Conditions: 3 pt, read-out: LD Tryptase, CHMC, Iono, 3 pt.
Assay [2] shares this test system. Kind of assay: CHMC low cell density IgE activation: tryptase assay. It counts as cell-based. Conditions: IgE activation. An outline of the steps: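 Tryptase release was read from supernatant with a fluorogenic substrate (30 min, room temperature) after anti-IgE challenge of cultured human mast cells (1000–1500 cells/well, low density) for 30 minutes at 37° C.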

The mark [3] stands for this setting: low cell density CHMC, tryptase.
The mark [4] stands for this setting: low cell density CHMC, tryptase, 3 pt, read-out: LD Tryptase, CHMC, IgE, 3 pt.
The mark [5] stands for this setting: Homo sapiens, Mast cell, low cell density CHMC, tryptase.
Setting [6] is: Homo sapiens, Mast cell, low cell density CHMC, tryptase, 3 pt, read-out: LD Tryptase, CHMC, IgE, 3 pt.
Setting [7] is: Homo sapiens, Mast cell, low cell density CHMC, tryptase, 8 pt, read-out: LD Tryptase, CHMC, IgE, 8 pt.
[8] abbreviates: low cell density CHMC, tryptase, 8 pt, read-out: LD Tryptase, CHMC, IgE, 8 pt.

Regarding `CC(C)(C)OC(=O)NC1CCOc2ccc(Nc3nc(Nc4ccc(-c5ncco5)cc4)ncc3F)cc21` (stereo not drawn) [Compound 1289, N4-(4-N-tert-Butoxycarbonylamino-3,4-dihydro-2H-1-benzopyran-6-yl)-5-fluoro-N2-[4-(oxazol-2-yl)phenyl]-2,4-pyrimidinediamine], the IC50 in assay [1] (setting [3]) and in assay [2] (setting [4]) was below 10 µM each time.
In the case of `OC1CCOc2ccc(Nc3nc(Nc4ccc(-c5ncco5)cc4)ncc3F)cc21` (stereo not drawn) [Compound 1291, 5-Fluoro-N4-(4-hydroxy-3,4-dihydro-2H-1-benzopyran-6-yl)-N2-[4-(oxazol-2-yl)phenyl]-2,4-pyrimidinediamine], the IC50 is above 10 µM in assay [1] (setting [5]), below 10 µM in assay [2] (setting [6]) and below 10 µM in assay [2] (setting [7]).
Take `CNC(=O)CNC(=O)c1ccc(Nc2ncc(F)c(Nc3ccc4c(c3)NC(=O)C(C)(C)O4)n2)cc1` [Compound 1295, N4-(2,2-Dimethyl-3-oxo-4H-benz[1,4]oxazin-6-yl)-5-fluoro-N2-[4-[N-(N-methylamino)carbonylmethylene]aminocarbonylphenyl]-2,4-pyrimidinediamine]: the IC50 is above 10 µM in assay [1] (setting [3]), below 10 µM in assay [2] (setting [4]) and below 10 µM in assay [2] (setting [8]).
Take `CNC(=O)CNC(=O)c1ccc(Nc2ncc(F)c(Nc3ccc4c(c3)NC(=O)[C@H](C)O4)n2)cc1` [Compound 1296, (S)-5-Fluoro-N2-[4-[N-(N-methylamino)carbonylmethylene]aminocarbonylphenyl]-N4-(2-methyl-3-oxo-2H,4H-benz[1,4]oxazin-6-yl)-2,4-pyrimidinediamine]: the values for the IC50 in assay [1] (setting [3]), in assay [2] (setting [4]) and in assay [2] (setting [8]) were above 10 µM, below 10 µM and below 10 µM, respectively.
Consider `CNC(=O)CNC(=O)c1ccc(Nc2ncc(F)c(Nc3ccc(Cl)c(Cl)c3)n2)cc1` [Compound 1300, N4-(3,4-Dichlorophenyl)-5-fluoro-N2-[4-[N-(N-methylamino)carbonylmethylene]aminocarbonylphenyl]-2,4-pyrimidinediamine], for which the IC50 was above 10 µM in assay [1] (setting [3]), below 10 µM in assay [2] (setting [4]) and below 10 µM in assay [2] (setting [8]).
With `CNC(=O)CNC(=O)c1ccc(Nc2ncc(F)c(N(C)c3ccc(Cl)c(Cl)c3)n2)cc1` [Compound 1301, N4-(3,4-Dichlorophenyl)-5-fluoro-N4-methyl-N2-[4-[N-(N-methylamino)carbonylmethylene]aminocarbonylphenyl]-2,4-pyrimidinediamine], the IC50 in assay [1] (setting [3]) is above 10 µM; in assay [2] (setting [4]), below 10 µM; in assay [2] (setting [8]) it was below 10 µM.
`COC(=O)CCNC(=O)c1ccc(Nc2ncc(F)c(Nc3ccc4c(c3)NC(=O)C(C)(C)O4)n2)cc1` [Compound 1302, N4-(2,2-Dimethyl-3-oxo-4H-benz[1,4]oxazin-6-yl)-5-fluoro-N2-[4-[N-(2-methoxycarbonylethyl)aminocarbonyl]phenyl]-2,4-pyrimidinediamine]: the IC50 in assay [1] (setting [5]), in assay [2] (setting [6]) and in assay [2] (setting [7]) was below 10 µM throughout.
With `COC(=O)CCNC(=O)c1ccc(Nc2ncc(F)c(Nc3ccc4c(c3)NC(=O)[C@H](C)O4)n2)cc1` [Compound 1303, (S)-5-Fluoro-N2-[4-[N-(2-methoxycarbonylethyl)aminocarbonyl]phenyl]-N4-(2-methyl-3-oxo-2H,4H-benz[1,4]oxazin-6-yl)-2,4-pyrimidinediamine], the IC50 in assay [1] (setting [5]) is above 10 µM; in assay [2] (setting [6]) it was below 10 µM; in assay [2] (setting [7]) it was below 10 µM.
On to `COC(=O)CCNC(=O)c1ccc(Nc2ncc(F)c(Nc3ccc4c(c3)NC(=O)C(F)(F)O4)n2)cc1` [Compound 1304], for which the IC50 is above 10 µM in assay [1] (setting [5]), below 10 µM in assay [2] (setting [6]) and below 10 µM in assay [2] (setting [7]).
As to `COC(=O)CCNC(=O)c1ccc(Nc2ncc(F)c(Nc3ccc(Cl)c(Cl)c3)n2)cc1` [Compound 1305], the IC50 in assay [1] (setting [5]), in assay [2] (setting [6]) and in assay [2] (setting [7]) was below 10 µM in each case.
As for `COC(=O)CCNC(=O)c1ccc(Nc2ncc(F)c(N(C)c3ccc(Cl)c(Cl)c3)n2)cc1` [Compound 1306], the IC50 in assay [1] (setting [5]) is above 10 µM; in assay [2] (setting [6]), below 10 µM; in assay [2] (setting [7]), below 10 µM.
Regarding `CC(C)(C)OC(=O)NCC(=O)NCc1ccc(Nc2ncc(F)c(Nc3ccc4c(c3)NC(=O)C(C)(C)O4)n2)cc1` [Compound 1307, N2-[4-[1-(tert-Butoxycarbonylamino)methylenecarbonylamino]methylphenyl]-N4-(2,2-dimethyl-3-oxo-4H-benz[1,4]oxazin-6-yl)-5-fluoro-2,4-pyrimidinediamine], the IC50 in assay [1] (setting [3]), in assay [2] (setting [4]) and in assay [2] (setting [8]) was below 10 µM throughout.
In the case of `C[C@@H]1Oc2ccc(Nc3nc(Nc4ccc(CNC(=O)CNC(=O)OC(C)(C)C)cc4)ncc3F)cc2NC1=O` [Compound 1308, (S)-N2-[4-[1-(tert-Butoxycarbonylamino)methylenecarbonylamino]methylphenyl]-5-fluoro-N4-(2-methyl-3-oxo-2H,4H-benz[1,4]oxazin-6-yl)-2,4-pyrimidinediamine], the IC50 in assay [1] (setting [3]), in assay [2] (setting [4]) and in assay [2] (setting [8]) was below 10 µM throughout.
As to `CC(C)(C)OC(=O)NCC(=O)NCc1ccc(Nc2ncc(F)c(Nc3ccc4c(c3)NC(=O)C(F)(F)O4)n2)cc1` [Compound 1309, N2-[4-[1-(tert-Butoxycarbonylamino)methylenecarbonylamino]methylphenyl]-N4-(2,2-difluoro-3-oxo-4H-benz[1,4]oxazin-6-yl)-5-fluoro-2,4-pyrimidinediamine], the results for the IC50 in assay [1] (setting [3]), in assay [2] (setting [4]) and in assay [2] (setting [8]) were above 10 µM, below 10 µM and below 10 µM, respectively.
With `CC(C)(C)OC(=O)NCC(=O)NCc1ccc(Nc2ncc(F)c(Nc3ccc(Cl)c(Cl)c3)n2)cc1` [Compound 1310, N2-[4-[1-(tert-Butoxycarbonylamino)methylenecarbonylamino]methylphenyl]-N4-(3,4-dichlorophenyl)-5-fluoro-2,4-pyrimidinediamine], the IC50 in assay [1] (setting [3]), in assay [2] (setting [4]) and in assay [2] (setting [8]) was below 10 µM each time.
Turning to “(R)-5-Fluoro-N2-[4- (N-methoxycarbonylmethyleneamino)carbonylphenyl]-N4- (2-methyl-3-oxo-2H,4H-benz[1,4]oxazin-6-yl)-2,4-pyrimidinediamine [Compound 1272]”, the values for the IC50 in assay [1] (setting [3]) and in assay [2] (setting [8]) were above 10 µM and below 10 µM, respectively.
The matching figures for “(S)-5-Fluoro-N2-[4- (N-methoxycarbonylmethyleneamino)carbonylphenyl]-N4- (2-methyl-3-oxo-2H,4H-benz[1,4]oxazin-6-yl)-2,4-pyrimidinediamine [Compound 1271]”: above 10 µM and below 10 µM.
In the case of “N2- (3-Chloro-4-methoxyphenyl)-N4- (2,2-dimethyl-3-oxo-4H-benz[1,4]oxazin-6-yl)-5-fluoro-N4-methyl-2,4-pyrimidinediamine [Compound 394]”, the IC50 in assay [1] (setting [3]) and in assay [2] (setting [4]) was below 10 µM in each case.
Take “N2- (Bis-2-hydroxyethyl)-N4- (3,4-ethylenedioxyphenyl)-5-fluoro-N4-methyl-2,4-pyrimidinediamine [Compound 492]”: the IC50 in assay [1] (low cell density) was above 10 µM; in assay [2] (low cell density, 3 pt, read-out: LD Tryptase, CHMC, IgE, 3 pt), above 10 µM.
In the case of “N2-[4-[1- (tert-Butoxycarbonylamino)methylenecarbonylamino]methylphenyl]-N4- (3,4-dichlorophenyl)-5-fluoro-N4-methyl-2,4-pyrimidinediamine [Compound 1311]”, the IC50 is above 10 µM in assay [1] (setting [3]) and below 10 µM in assay [2] (setting [4]).
